Key:
perception of saltiness [1] = test: Broth DAP test: trained panel rates saltiness of compounds in simple broth; type: in vivo; settings: individual compounds in simple broth; DAP score greater than 7.6 indicates saltiness or salt enhancement
Method: (§1) Briefly, each individual tested compound was placed in water and in sodium solution to test saltiness and saltiness enhancement potential. Tests in water were executed in a compound concentration of 10 ppm. Tests in sodium solution were executed in compound concentrations of 0.1, 1 and 10 ppm. Two control sodium solutions with known organoleptic salt intensities were provided as references for each test. The test for individual compounds was also conducted using simple broth instead of sodium solution. A number of compound combinations identified from the Na-solution DAP test were used for the broth DAP test. Tests were executed with a trained panel of 9-12 assessors. For Na-solution DAP tests, a DAP score of greater than 3.1 indicates saltiness or salt enhancement. The DAP score can be correlated with a sodium reduction potential by subtracting 3.1 from the DAP score.

perception of saltiness [2] = test: Na-solution DAP test: trained panel rates saltiness of compounds in sodium solution; type: in vivo; settings: individual compounds in sodium solution; compound concentrations of 0.1, 1 and 10 ppm; DAP score greater than 3.1 indicates saltiness or salt enhancement
Method: as §1

SMILES	DAP in Broth (perception of saltiness [1])	DAP in Na-Sol. (perception of saltiness [2])
C/C=C(\C)C(=O)O[C@H]1[C@H](O)[C@]2(CO)[C@H](O)C[C@]3(C)C(=CCC4[C@@]5(C)CC[C@H](O[C@@H]6O[C@H](C(=O)O)[C@@H](O[C@@H]7O[C@H](CO)[C@@H](O)[C@H](O)[C@H]7O)[C@H](O)[C@H]6O[C@@H]6O[C@H](CO)[C@@H](O)[C@H](O)[C@H]6O)[C@](C)(CO)C5CC[C@]43C)[C@@H]2CC1(C)C (stereo partly drawn) [Compound 34]	7.7	–
CC(=O)O[C@@H]1CC2C(C)(C)C(=O)C=C[C@]2(C)C2CC[C@]3(C)C(=CC(=O)C3c3ccoc3)[C@@]21C (stereo partly drawn) [Compound 74]	7.7	3.2
CCCCCCCCCCNC(C)=O [Compound 84]	8.1	3.8
CC/C=C\C/C=C\C=C\[C@H](O)CCCCCCCC(=O)O [Compound 85]	–	2.9
COc1c2ccoc2cc2oc(=O)ccc12 [Compound 62]	78.0	3.9
C[C@]12CC[C@H](O)C[C@H]1CC[C@@H]1[C@@H]2CC[C@]2(C)[C@@H](C3=CC(=O)OC3)CC[C@]12O [Compound 73]	8.0	3.5
C/C=C1\C(=O)CC2C3CCC4=CC(=O)CCC4(C)C3CCC12C (stereo not drawn) [Compound 75]	–	3.6
C=CCCCCCCCCCCCC(CC(O)COC(C)=O)OC(C)=O (stereo not drawn) [Compound 83]	8.1	4.2
C=CCCCCCCCCCCC[C@H](O)C[C@H](O)CO [Compound 82]	8.3	3.8
COc1cc2oc(=O)ccc2c(OC)c1CC=C(C)C [Compound 28]	–	3.6
CCCCC/C=C/C=C/C(O)CCCCCCCC(=O)O (stereo not drawn) [Compound 88]	8.0	–
CCCCCCCCCCC[C@@H](O)CC(=O)CCc1ccc(O)c(OC)c1 [Compound 1]	7.8	–
CC(=O)OC1C(O)COC(OC2C(O)C(C)OC(OC(C)(CCC=C(C)C)C3C(O)CC4(C)C3CCC3C5(C)CCC(OC6OCC(O)C(O)C6O)C(C)(C)C5CCC34C)C2O)C1O (stereo not drawn) [Compound 38]	8.1	3.9
C=CC(C)(O)CC/C=C(\C)C(=O)OC1C(OCC2OC(OC(=O)C34CCC(C)(C)CC3C3=CCC5C6(C)CCC(OC7OC(COC8OCC(O)C(O)C8OC8OCC(O)C(O)C8O)C(O)C(O)C7O)C(C)(C)C6CCC5(C)C3(C)CC4O)C(OC3OC(C)C(OC4OCC(O)C(OC5OCC(O)C(O)C5O)C4O)C(O)C3O)C(OC(=O)/C(C)=C/CCC(C)(O)C=C)C2O)OC(C)C(O)C1O (stereo not drawn) [Compound 35]	8.1	3.7
CC(C)C(=O)c1c2c(c3oc(=O)cc(-c4ccccc4)c3c1O)CC(C(C)(C)O)O2 (stereo not drawn) [Compound 60]	8.1	3.8
C[C@H]1[C@H](C)CC[C@]2(C(=O)O)CC[C@]3(C)C(=CC[C@@H]4[C@@]5(C)CC[C@H](O)C(C)(C)[C@@H]5CC[C@]43C)[C@H]12 [Compound 43]	8.0	–
CC/C=C\C=C\C(O)C/C=C\CCCCCCCC(=O)O (stereo not drawn) [Compound 86]	8.0	3.9
CC(C)(O)C(O)COc1c2ccoc2cc2oc(=O)ccc12 (stereo not drawn) [Compound 63]	8.0	–
COc1cc(O)c(C(C)=O)c(OC)c1 [Compound 53]	8.5	–
COc1cc2c(c(OC)c1OC)-c1c(cc3c(c1OC)OCO3)CC(C)C(C)C2 (stereo not drawn) [Compound 46]	7.8	–
C=CC(C)(O)CCC1(C)C2=C(C(OC(C)=O)C(OC(C)=O)C1C)C(C)(C)CCC2 (stereo not drawn) [Compound 29]	8.0	–
COc1cc2c(c(OC)c1OC)-c1c(cc3c(c1OC)OCO3)C[C@H](C)[C@@](C)(O)C2 [Compound 44]	8.6	3.8
CC(C)=CCOc1c2occc2cc2ccc(=O)oc12 [Compound 64]	7.8	3.7

SMILES	DAP in Broth (perception of saltiness [1])	DAP in Na-Sol. (perception of saltiness [2])
COC1CC(OC2CCC3(C=O)C(CCC4C3CCC3(C)C(C5=CC(=O)OC5)CCC43O)C2)OC(C)C1O (stereo not drawn) [Compound 77]	8.1	3.4
CCC/C=C\C/C=C\CCCC/C=C\Cc1cc(O)cc(O)c1 [Compound 10]	7.9	–
COc1cc(CC(C)C(C)Cc2ccc(O)c(OC)c2)ccc1O (stereo not drawn) [Compound 49]	8.2	–
COc1cc(CC/C=C/C(=O)CCc2ccccc2)ccc1O [Compound 11]	8.1	–
CCCCCCCC/C=C/C(O)CCCCCCC(=O)OCC(O)CO (stereo not drawn) [Compound 87]	8.0	–
CC1(C)CC[C@]2(C(=O)O)CC[C@]3(C)C(=CCC4[C@@]5(C)C[C@@H](O)[C@H](O)C(C)(C)C5CC[C@]43C)C2C1 (stereo partly drawn) [Compound 42]	8.1	3.1
C=CCCCCCCC(C(=O)O)C(O)CC(=O)O (stereo not drawn) [Compound 81]	7.8	3.2
CC(=O)OC1CCC2(C)C(COc3ccc4ccc(=O)oc4c3)C(C)(O)CCC2C1(C)C (stereo not drawn) [Compound 66]	7.8	3.2
CCCCC/C=C\CCCCCCc1cc(=O)c2ccccc2n1C [Compound 16]	8.0	–
O=C(/C=C/C=C/c1ccc2c(c1)OCO2)N1CCCCC1 [Compound 18]	8.1	–
CCCCCC(CC(CCc1ccc(O)c(OC)c1)OC(C)=O)OC(C)=O (stereo not drawn) [Compound 3]	8.8	–
CC1CCC2(OC1)OC1CC3C4CCC5CC(OC6OC(CO)C(OC7OC(CO)C(O)C(OC8OC(CO)C(O)C(OC9OCC(O)C(O)C9O)C8O)C7O)C(OC7OCC(O)C(O)C7O)C6O)CCC5(C)C4CC(=O)C3(C)C1C2C (stereo not drawn) [Compound 37]	8.1	3.7
COc1cc(CCC(O)CC(=O)CCc2ccccc2)ccc1O (stereo not drawn) [Compound 12]	7.6	–
CCCCCCCCC/C=C/C(=O)CCc1ccc(O)c(OC)c1 [Compound 2]	7.8	–
COc1cc(C2c3cc4c(cc3CC3COC(=O)C32)OCO4)cc(OC)c1OC (stereo not drawn) [Compound 59]	7.9	3.3
COC1CC(OC2CCC3(C=O)C(CCC4C3CCC3(C)C(C5=CC(=O)OC5)CCC43O)C2)OC(C)C1OC1OC(CO)C(O)C(O)C1O (stereo not drawn) [Compound 76]	8.0	3.2
COc1cc2c(c(OC)c1OC)-c1c(cc(OC)c(OC)c1OC)C[C@H](C)[C@H](C)C2 [Compound 45]	8.2	–
COc1cc(COC(=O)CCCC/C=C/C(C)C)ccc1O [Compound 13]	7.9	–
CC(C)CNC(=O)/C=C/C=C/CCCCCC/C=C/c1ccc2c(c1)OCO2 [Compound 15]	8.1	3.5
C=C[C@@]1(C)CC(=O)C2[C@]3(C)C(C[C@@H](O)[C@@]2(O)C1=O)C(C)(C)[C@H](OC(C)=O)[C@H](OC(C)=O)[C@@H]3OC(=O)c1ccccc1 (stereo partly drawn) [Compound 32]	8.1	–
COc1c2ccoc2c(OCC=C(C)C)c2oc(=O)ccc12 [Compound 65]	7.9	3.3
COc1cc(CNC(=O)CCCCCCC(C)C)ccc1O [Compound 21]	–	4

Source: patent US11540539B2, “Reduced sodium food products” (GENERAL MILLS, INC., priority 2013, dated 2023)
